Assay results as given in patent US8980844B2, “Peptide having antibacterial or anti-inflammatory activity and pharmaceutical composition containing the same as an active ingredient” (Nano Intelligent Biomedical Engineering Corporation Co. Ltd., priority 2010, dated 2015).
Structures can show the parent of a compound that is named as a salt. No end group written: not given here.

B1: rhHB-EGF: recombinant human HB-EGF, comparator growth factor (protein, UniProt Q99075 63-148, looked up)
Heparin-binding EGF-like …: DLQEADLDLLRVTLSSKPQALATPNKEEHGKRKKKGKGLGKKRDPCLRKYKDFCIHGECKYVKELRAPSCICHPGYHGERCHGLSL

Tests used:
Type in all cases: cell-based
[1] = test system: COX-2 expression in RAW 264.7 cells; test: Western blot analysis of COX-2; conditions: 1 hour pretreatment, LPS 10 ng/ml, 8 hours, FIG. 4
Method: (§1) RAW 264.7 cells obtained from ATCC (American Type Culture Collection) were incubated in a CO2 incubator (supplied with 5% CO2 and 95% air) with DMEM (Dulbecco's modified Eagle medium) medium containing 10% FBS and 100 units/ml of antibiotics (penicillin and streptomycin) at 37° C.
(§2) The incubated RAW 264.7 cells were treated with each of the peptides having the amino acid sequences of SEQ ID NOS: 1 to 4 for 1 hour, and then treated with LPS (10 ng/ml). After 8 hours, a protein of each of the cytosol and the nucleus was collected and compared with the changes in expressions of iNOS and COX-2 caused by hBD3, rhPDGF-BB and rhHB-EGF. The collected protein was identified by SDS-PAGE and transferred to a nitrocellulose membrane using a blotting kit. The membrane was blotted with each of the primary antibodies iNOS and COX-2 and exposed to HRP (horseradish peroxidase)-conjugated secondary antibody. Then, the membrane was allowed to react with an ECL western blot detection reagent and exposed to an X-ray film to detect signals, thereby measuring the expressions of the inflammation-associated enzymes iNOS and COX-2.

[2] = test system: NF-κB expression in RAW 264.7 cells; test: Western blot analysis of NF-κB; conditions: 1 hour pretreatment, LPS 10 ng/ml, 8 hours, FIG. 3
Method: In order to examine association with signals, the expression of the allergic inflammation-associated enzyme NF-κB associated with the NF-κB signal was measured.
as §1
The incubated RAW 264.7 cells were treated with each of the peptides having the amino acid sequences of SEQ ID NOS: 1 to 4 for 1 hour, and then treated with LPS (10 ng/ml). After 8 hours, a protein of each of the cytosol and the nucleus was collected and compared with the changes in expression of NF-κB caused by hBD3, rhPDGF-BB and rhHB-EGF. The collected protein was identified by SDS-PAGE and transferred to a nitrocellulose membrane using a blotting kit. The membrane was blotted with the primary antibody NF-κB and exposed to HRP (horseradish peroxidase)-conjugated secondary antibody. Then, the membrane was allowed to react with an ECL western blot detection reagent and exposed to an X-ray film to detect a signal, thereby measuring the expression of the inflammation-associated enzyme NF-κB.

[3] = test system: iNOS expression in RAW 264.7 cells; test: Western blot analysis of iNOS; conditions: 1 hour pretreatment, LPS 10 ng/ml, 8 hours, FIG. 4
Method: as §1, §2

[4] = test system: Prevotella intermedia, Actinomyces israelii, Fusobacterium nucleatum, Staphylococcus aureus subsp aureus, Streptococcus pyogenes, Staphylococcus epidermidis; test: Antibacterial activity by liquid dilution method (colony count); conditions: liquid dilution method, 1, 10 and 100 μg/ml, 37° C. for 1 hour, number of colonies counted; FIG. 1
Method: In order to evaluate the antibacterial effects of the peptides having the amino acid sequences of SEQ ID NOS: 1 to 4, measurement of the antibacterial activities of the peptides was carried out using a liquid dilution method. Periodontal pathogens, including Prevotella intermedia, Actinomyces israelii, and Fusobacterium nucleatum, were cultured in tryptic soy broth. Staphylococcus aureus subsp aureus and Streptococcus pyogenes were curtured in trypticase soy broth, and Staphylococcus epidermidis was curtured in nutrient liquid medium. After the above bacterial strains had been cultured until the absorbance at 620 nm reached 1, the cells were collected and used in the test. […]
In order to measure the antibacterial activities of the peptides using the liquid dilution method, 1 ml of distilled water was placed in a fine tube, after which 10 μl of the diluted bacterial cell solution was placed in the tube, and then 50 μl of the solution was plated on plate medium and used as a control. Meanwhile, plate medium was treated with each of the antibacterial peptides at concentrations of 1 μg/ml, 10 μg/ml and 100 μg/ml at 37° C. for 1 hours, after which 50 μl of the bacterial cell solution was plated on the plate medium, and the number of colonies produced was counted. […]

[5] = test system: Basophilic leukemia RBL-2H3 cells; test: Change in release of β-hexosaminidase (degranulation, anti-allergic effect); conditions: RBL-2H3 cells sensitised with anti-DNP IgE, challenged with DNP-HAS; concentration of 100 μM; FIG. 2
Method: In order to examine the anti-allergic effects of the peptides having the amino acid sequences of SEQ ID NOS: 1 to 4, the changes in release of β-hexosaminidase by the peptides were measured.
Basophilic leukemia RBL-2H3 cells obtained from ATCC (American Type Culture Collection) were cultured in a CO2 incubator (supplied with 5% CO2 and 95% air) with DMEM (Dulbecco's modified Eagle medium) medium containing 10% FBS (heat inactivated fetal bovine serum) and 100 units/ml of antibiotics (penicillin and streptomycin) at 37° C. for 24 hours. Specifically, the cells were cultured in a 96-well plate at a density of 5×10^4 cells/well, and then the supernatant was removed. […] Then, the absorbance at 405 nm was measured and the change in release of β-hexosaminidase was determined. The method of measuring the amount of β-hexosaminidase is known to be sensitive and accurate compared to a method of quantifying histamine, and thus has recently been frequently used in studies on degranulation. For comparison, In addition, the changes in release of β-hexosaminidase by KF and growth factors (hBD3, rhPDGF-BB and rhHB-EGF), which are used as agents for treating allergic diseases, were measured in the same manner as described above and compared with the changes caused by the peptides.

Molecule | LPS-induced expression of COX-2 [1] | LPS-induced expression of NF-κB [2] | LPS-induced expression of iNOS [3] | antibacterial activity [4] | release of β-hexosaminidase [5]
CN1CCC(=C2c3ccccc3CC(=O)c3sccc32)CC1 [KF, ketotifen fumarate, reference compound] | smaller than the inhibitory effects of the peptides | smaller than the inhibitory effects of the peptides | smaller than the inhibitory effects of the peptides | – | –
hBD3: human beta-defensin-3, comparator (GIINTLQKYYCRVRGGRCAVLSCLPKEEQIGKCSTRGRKCCRRKK; ends and bridges not checked; cysteine pairing not given here; UniProt P81534 23-67, looked up) | no inhibitory effect | not greater than those of the peptides | no inhibitory effect | lower than those of the peptides | did not influence the reduction in the release of β-hexosaminidase
B1 | no inhibitory effect | not greater than those of the peptides | no inhibitory effect | lower than those of the peptides | did not influence the reduction in the release of β-hexosaminidase
